pIC50: −log10 of the molar value. Counter-ions that a name gives are not always drawn.
The compounds below were run against Full length SHP2 protein (Recombinant Human SHP-2) (Homo sapiens, UniProt Q06124) (assay: SHP2 biochemical assay (DiFMUP substrate, activating peptide IRSI_2pY)). Conditions: DiFMUP substrate, activating peptide IRSI_2pY, 60 min at RT; read-out: SHP-2 Biochemical assay IC50.
Experimental: The inhibition of SHP2 by compounds of the invention was monitored using the surrogate substrate DiFMUP after protein activation by a peptide bearing two appropriately spaced phosphotyrosine. […] The generation of the DiFMU product by activated SHP2 was monitored through Fluorescence measurement with a PerkinElmer Envision reader.
The inhibitor dose response curves were analyzed with Genedata Screener.

Full length SHP2 protein (Recombinant Human SHP-2), sequence (Q06124 2-593 limits assumed): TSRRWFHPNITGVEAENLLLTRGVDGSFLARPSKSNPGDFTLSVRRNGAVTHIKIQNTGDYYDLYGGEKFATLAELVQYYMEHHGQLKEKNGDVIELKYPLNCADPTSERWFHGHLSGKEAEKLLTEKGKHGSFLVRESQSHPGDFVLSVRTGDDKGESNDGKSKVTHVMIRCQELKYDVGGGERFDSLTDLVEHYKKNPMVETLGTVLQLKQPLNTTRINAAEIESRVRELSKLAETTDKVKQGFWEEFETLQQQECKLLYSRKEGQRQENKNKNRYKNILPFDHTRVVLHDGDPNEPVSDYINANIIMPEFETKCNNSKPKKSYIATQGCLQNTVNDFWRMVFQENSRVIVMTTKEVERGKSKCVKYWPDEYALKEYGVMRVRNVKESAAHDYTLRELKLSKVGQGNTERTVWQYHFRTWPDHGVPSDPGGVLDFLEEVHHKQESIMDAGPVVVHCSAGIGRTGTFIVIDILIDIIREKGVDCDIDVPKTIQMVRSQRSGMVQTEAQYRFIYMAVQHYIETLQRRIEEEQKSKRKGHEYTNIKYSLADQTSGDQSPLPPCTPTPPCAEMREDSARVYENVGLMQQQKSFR

| Compound | pIC50 |
| --- | --- |
| CC1(N)CCN(c2nc(F)c(-c3cccc(F)c3)c(C(N)=O)n2)CC1 [Compound 22, 2-(4-Amino-4-methyl-piperidin-1-yl)-6-fluoro-5-(3-fluorophenyl)-pyrimidine-4-carboxylic Acid Amide] | 4.68 |
| NCC1CN(c2nc(N)c(-c3cccc(Cl)c3Cl)c(C(N)=O)n2)CC12CCOCC2 (stereo not shown) [Compound 23, 6-amino-2-[4-(aminomethyl)-8-oxa-2-azaspiro[4.5]decan-2-yl]-5-(2,3-dichlorophenyl)pyrimidine-4-carboxamide] | 5.33 |
| CC1(N)CCN(c2nc(O)c(-c3cccc(F)c3)c(C(N)=O)n2)CC1 [Compound 25, 2-(4-amino-4-methylpiperidin-1-yl)-5-(3-fluorophenyl)-6-hydroxypyrimidine-4-carboxamide hydrochloride] | < 5.00 |
| Cc1nc(N2C3COCC2CC(N)C3)nc(C(N)=O)c1-c1cccc(Cl)c1Cl (stereo not shown) [Compound 33, 2-(7-Amino-3-oxa-9-aza-bicyclo[3.3.1]non-9-yl)-5-(2,3-dichlorophenyl)-6-methyl-pyrimidine-4-carboxylic acid amide] | 5.62 |
| NCC1CN(c2nc(N)c(-c3cccc(Cl)c3Cl)c(C(N)=O)n2)CC12COC2 (stereo not shown) [Compound 34, 6-amino-2-[8-(aminomethyl)-2-oxa-6-azaspiro[3.4]octan-6-yl]-5-(2,3-dichloro-phenyl)pyrimidine-4-carboxamide] | 5.96 |
| Cc1nc(NC2CCC(CN)C2)nc(C(N)=O)c1-c1cccc(Cl)c1Cl (stereo not shown) [Compound 36, 2-(3-Aminomethyl-cyclopentylamino)-5-(2,3-dichloro-phenyl)-6-methyl-pyrimidine-4-carboxylic acid amide] | 4.89 |
| NC(=O)c1nc(N2CCC3(CC2)CC(N)CCO3)nc(N)c1-c1cccc(Cl)c1Cl (stereo not shown) [Compound 38, 6-amino-2-{4-amino-1-oxa-9-azaspiro[5.5]undecan-9-yl}-5-(2,3-dichlorophenyl)pyrimidine-4-carboxamide] | 5.12 |
| NC(=O)c1nc(N2CCC(C3OCCCC3N)CC2)nc(N)c1-c1cccc(Cl)c1Cl (stereo not shown) [Compound 39, 6-amino-2-[4-(3-aminooxan-2-yl)piperidin-1-yl]-5-(2,3-dichlorophenyl)pyrimidine-4-carboxamide] | 5.20 |
| NCC1CC2(CCN(c3nc(N)c(-c4cccc(Cl)c4Cl)c(C(N)=O)n3)CC2)CO1 (stereo not shown) [Compound 40, 6-amino-2-[3-(aminomethyl)-2-oxa-8-azaspiro[4.5]decan-8-yl]-5-(2,3-dichlorophenyl)pyrimidine-4-carboxamide] | 5.41 |
| Cc1nc(N2CC3CCC(N)C3C2)nc(C(N)=O)c1-c1cccc(Cl)c1Cl (stereo not shown) [Compound 42, 2-(4-Amino-hexahydro-cyclopenta[c]pyrrol-2-yl)-5-(2,3-dichloro-phenyl)-6-methyl-pyrimidine-4-carboxylic acid amide] | 5.32 |
| Cc1nc(NC2CCCC2CN)nc(C(N)=O)c1-c1cccc(Cl)c1Cl (stereo not shown) [Compound 43, 2-(2-Aminomethyl-cyclopentylamino)-5-(2,3-dichloro-phenyl)-6-methyl-pyrimidine-4-carboxylic acid amide] | 5.51 |
| Cc1nc(N2CC(F)(CN)C2)nc(C(N)=O)c1-c1cccc(Cl)c1Cl [Compound 44, 2-(3-Aminomethyl-3-fluoro-azetidin-1-yl)-5-(2,3-dichloro-phenyl)-6-methyl-pyrimidine-4-carboxylic acid amide] | 4.96 |
| Cc1nc(N2CCC2CN)nc(C(N)=O)c1-c1cccc(Cl)c1Cl (stereo not shown) [Compound 46, 2-(2-Aminomethyl-azetidin-1-yl)-5-(2,3-dichloro-phenyl)-6-methyl-pyrimidine-4-carboxylic acid amide] | 5.26 |
| NC(=O)c1nc(N2CC3CCCC(N)C3C2)nc(N)c1-c1cccc(Cl)c1Cl (stereo not shown) [Compound 50, 6-amino-2-(4-amino-octahydro-1H-isoindol-2-yl)-5-(2,3-dichlorophenyl)pyrimidine-4-carboxamide] | 5.00 |
| NC[C@@H]1CN(c2nc(N)c(-c3cccc(Cl)c3Cl)c(C(N)=O)n2)C[C@H]1c1ccccc1 [Compound 51, 6-amino-2-[(3R,4R)-3-(aminomethyl)-4-phenylpyrrolidin-1-yl]-5-(2,3-dichlorophenyl)pyrimidine-4-carboxamide] | 5.82 |
| NC(=O)c1nc(NC2CCOC3(C2)CN2CCC3CC2)nc(N)c1-c1cccc(Cl)c1Cl (stereo not shown) [Compound 52, 6-amino-2-({4-azaspiro[bicyclo[2.2.2]octane-2,2′-oxan]-4′-yl}amino)-5-(2,3-dichlorophenyl)pyrimidine-4-carboxamide] | < 5.00 |
| NCC1(O)CN(c2nc(N)c(-c3cccc(Cl)c3Cl)c(C(N)=O)n2)C1 [Compound 54, 6-amino-2-[3-(aminomethyl)-3-hydroxyazetidin-1-yl]-5-(2,3-dichlorophenyl)-pyrimidine-4-carboxamide] | 5.11 |

| Compound | pIC50 |
| --- | --- |
| CC1(CN)CN(c2nc(N)c(-c3cccc(Cl)c3Cl)c(C(N)=O)n2)C1 [Compound 55, 6-amino-2-[3-(aminomethyl)-3-methylazetidin-1-yl]-5-(2,3-dichlorophenyl)pyrimidine-4-carboxamide] | 5.77 |
| Cc1nc(N2CC3CN(C)CC3C2)nc(C(N)=O)c1-c1cccc(Cl)c1Cl (stereo not shown) [Compound 56, 5-(2,3-Dichloro-phenyl)-6-methyl-2-(5-methyl-hexahydro-pyrrolo[3,4-c]pyrrol-2-yl)-pyrimidine-4-carboxylic acid amide] | 6.02 |
| Cc1nc(N2CC(N)(CO)C2)nc(C(N)=O)c1-c1cccc(Cl)c1Cl [Compound 57, 2-(3-Amino-3-hydroxymethyl-azetidin-1-yl)-5-(2,3-dichloro-phenyl)-6-methyl-pyrimidine-4-carboxylic acid amide] | < 5.00 |
| Cc1nc(N2CCC3(CC3N)C2)nc(C(N)=O)c1-c1cccc(Cl)c1Cl (stereo not shown) [Compound 58, 2-(1-Amino-5-aza-spiro[2.4]hept-5-yl)-5-(2,3-dichloro-phenyl)-6-methyl-pyrimidine-4-carboxylic acid amide] | 5.36 |
| CC1(N)CCN(c2ncc(-c3cccc4[nH]cnc34)c(C(N)=O)n2)CC1 [Compound 60, 2-(4-Amino-4-methyl-piperidin-1-yl)-5-(1H-benzoimidazol-4-yl)-pyrimidine-4-carboxylic acid amide] | < 5.00 |
| CC1(N)CCN(c2ncc(-c3cccc4nonc34)c(C(N)=O)n2)CC1 [Compound 61, 2-(4-Amino-4-methyl-piperidin-1-yl)-5-benzo[1,2,5]-oxadiazol-4-yl-pyrimidine-4-carboxylic acid amide] | < 5.00 |
| CC1(N)CCN(c2nc(N)c(-c3ccc4cn[nH]c4c3Cl)c(C(N)=O)n2)CC1 [Compound 62, 6-Amino-2-(4-amino-4-methyl-piperidin-1-yl)-5-(7-chloro-1H-indazol-6-yl)-pyrimidine-4-carboxylic acid amide] | < 5.00 |
| NC(=O)c1nc(N[C@@H]2CCCC[C@@H]2N)nc(N)c1-c1cccc(Cl)c1Cl [Compound 65, 6-amino-2-{[(1R,2S)-2-aminocyclohexyl]amino}-5-(2,3-dichlorophenyl)-pyrimidine-4-carboxamide] | 5.43 |
| Cc1nc(N2CCC3CCC(C2)N3)nc(C(N)=O)c1-c1cccc(Cl)c1Cl (stereo not shown) [Compound 68, 2-(3,9-Diaza-bicyclo[4.2.1]-non-3-yl)-5-(2,3-dichloro-phenyl)-6-methyl-pyrimidine-4-carboxylic acid amide] | 5.21 |
| NC(=O)c1nc(N2CC(N)C2)nc(N)c1-c1cccc(Cl)c1Cl [Compound 69, 6-amino-2-(3-aminoazetidin-1-yl)-5-(2,3-dichlorophenyl)-pyrimidine-4-carboxamide] | 5.25 |
| NC[C@@H]1[C@H]2CN(c3nc(N)c(-c4cccc(Cl)c4Cl)c(C(N)=O)n3)C[C@@H]12 [Compound 70, 6-amino-2-[(1R,5S,6R)-6-(aminomethyI)-3-azabicyclo-[3.1.0]hexan-3-yl]-5-(2,3-dichlorophenyl)pyrimidine-4-carboxamide] | 5.28 |
| NCC1CCN1c1nc(N)c(-c2cccc(Cl)c2Cl)c(C(N)=O)n1 (stereo not shown) [Compound 71, 6-amino-2-[2-(aminomethyl)-azetidin-1-yl]-5-(2,3-dichlorophenyl)pyrimidine-4-carboxamide] | 5.89 |
| Cc1nc(N2C[C@H]3CC[C@@H](N)[C@H]3C2)nc(C(N)=O)c1-c1cccc(Cl)c1Cl [Compound 72, 2-((3aR,4R,6aS)-4-Amino-hexahydro-cyclopenta-[c]pyrrol-2-yl)-5-(2,3-dichloro-phenyl)-6-methyl-pyrimidine-4-carboxylic acid amide] | 5.17 |
| Cc1nc(N2C[C@H]3CCC(N)[C@@H]3C2)nc(C(N)=O)c1-c1cccc(Cl)c1Cl (stereo partly drawn) [Compound 73, 2-((3aS,6aS)-4-Amino-hexahydro-cyclopenta-[c]pyrrol-2-yl)-5-(2,3-dichloro-phenyl)-6-methyl-pyrimidine-4-carboxylic acid amide] | 5.28 |
| Cc1nc(N2C[C@@H]3CC[C@H](N)[C@@H]3C2)nc(C(N)=O)c1-c1cccc(Cl)c1Cl [Compound 74, 2-((3aS,4S,6aR)-4-Amino-hexahydro-cyclopenta-[c]pyrrol-2-yl)-5-(2,3-dichloro-phenyl)-6-methyl-pyrimidine-4-carboxylic acid amide] | < 5.00 |
| Cc1nc(N2C[C@@H]3CC[C@@H](N)[C@@H]3C2)nc(C(N)=O)c1-c1cccc(Cl)c1Cl [Compound 75, 2-((3aS,4R,6aR)-4-Amino-hexahydro-cyclopenta[c]pyrrol-2-yl)-5-(2,3-dichloro-phenyl)-6-methyl-pyrimidine-4-carboxylic acid amide] | 5.68 |
| Cc1nc(N2C[C@@H]3CCC(N)[C@H]3C2)nc(C(N)=O)c1-c1cccc(Cl)c1Cl (stereo partly drawn) [Compound 76, 2-((3aR,6aR)-4-Amino-hexahydro-cyclopenta-[c]pyrrol-2-yl)-5-(2,3-dichloro-phenyl)-6-methyl-pyrimidine-4-carboxylic acid amide] | 6.00 |

Source: US11033547B2, “Carboxamide-pyrimidine derivatives as SHP2 antagonists” (Merck Patent GmbH, priority 2019, dated 2021)
